Test results reported in patent US9512180B2, “Compstatin analogs” (THE REGENTS OF THE UNIVERSITY OF CALIFORNIA, priority 2012, dated 2016).
Several values for one entry are separate records, joined by “and”; a condition that tells them apart may be missing. Equal entries are not always repeated. Bridge positions count the residues as written; N and C are the ends. Square brackets hold non-standard residues; d marks the D form. Peptide text beside a SMILES is read from it. Trp(1-Me) = Cn1cc(C[C@H](N)C(=O)O)c2ccccc21

How the values were obtained:
[1] = RP-HPLC relative lipophilicity (retention factor k, log k); assay type: physicochemical
Protocol: The effect of the hydrophobic content of compstatin family peptides on relative lipophilicity was evaluated using RP-HPLC, a widely applied indirect technique for the determination of the lipophilicity of drugs and drug candidates. The determination of log P by RP-HPLC is based on the measurement of the retention factor k between the mobile and stationary phase (Eq. 7) of the investigated compound:
[formula] where tR is the retention time of the analyte, and to is the elution time of an unretained analyte. The logarithm of the retention factor is linearly correlated with the logarithm of the partition coefficient log P=a log k+b (8). where a and b are the slope and intercept of the linear equation.
The determination of log P values requires calibration using structurally related compounds, and is beyond the scope of this study. Instead the log k values were used to indicate the relative lipophilicities of this compstatin peptide family.
HPLC experiments were carried out using an Agilent 1100 HPLC with UV detection at 280 nm at 25° C. Separations were performed on a Waters (Milford, Mass.) 4.6×150 mm XTerra MS C18 column with 5 μm pore size using a mobile phase of A: 10 mM phosphate buffer pH=7.4 containing 1% TFA, and B: acetonitrile. The purity of the peptides was verified by an isocratic separation at 28% B and a flow rate of 1 mL/min. Solutions containing 0.6-0.8 mg/mL of Peptides I, III, VI, IX and the parent peptide were prepared in methanol and diluted 5-times with the eluent. All five peptides eluted as single peaks indicating a high degree of purity (FIG. 10).
For the determination of the relative lipophilicities a solution containing each of the peptides was prepared from the stock solutions and injected in triplicate. […] A 0.5 mg/mL solution of aspartic acid was used as the unretained analyte for the determination of the column dead time, 1.439±0.003 min.
RP-HPLC was used to measure the hydrophobicity/lipophilicity content of the compstatin family peptides. The retention of a compound in RP-HPLC depends on its hydrophobicity/lipophilicity content, and is correlated to the octanol-water partition ratio. Lipophilicity describes the partitioning of a compound between an aqueous and a lipidic/hydrophobic environment, and is an essential physicochemical parameter to determine pharmacokinetic behavior according to ADME (absorption, distribution, metabolism, excretion) characterization. Because the compstatin family peptides consist of a hydrophobic and a polar surface, their ability to bind to the hydrophobic cavity of C3, while maintaining a solvent-exposed face has been evaluated here as lipohilicity content, measured by RP-HPLC. In addition, lipohilicity is inversely proportional to aqueous solubility, and therefore can be used to estimate solubility of the peptides in their free (unbound) state.

[2] = tested on: complement alternative pathway (AP); experiment: C5b-9 ELISA (inhibition of C5b-9 terminal complex formation); assay type: biochemical, human
Protocol: Inhibition of the complement alternative pathway (AP) by compstatin family peptides was assayed by ELISA. Peptides were dissolved in phosphate buffered saline (PBS, 150 mM). Initial peptide concentrations were calculated using the Beer-Lambert Law with an extinction coefficient of 5,500 (1/M·cm) for Trp and 5,470 (1/M·cm) for methylated-Trp present in the sequence, at 280 nm. Nunc Maxisorp 96-well plates were coated with 1 μg lipopolysaccharides (LPS) from Salmonella enteriditis for ˜16 h at room temperature. Plates were washed three times with PBS/0.05% Tween-20 (PBS-T) between each step. Plates were blocked with 4% bovine serum albumin (BSA) in PBS-T for 1 h at 37° C. Serial peptide dilutions were performed in 96-well plates, using gelatin veronal-buffered saline with 5 mM MgCl2 and 10 mM EGTA (GVBS-MgEGTA). Normal human serum (Complement Technology Inc., Tyler, Tex., USA) was diluted in GVBS-MgEGTA and mixed with compstatin serial dilutions to a final concentration of 30%. Serum diluted in GVBS-MgEGTA and GVBS (containing 20 mM EDTA) were used as positive and negative controls for complement activation, respectively. Dilutions were preincubated for 15 minutes at room temperature, transferred to ELISA plates, and incubated for 1 h at 37° C. Generation of C3b and C5b-9 were assayed using horseradish peroxidase (HRP)-conjugated anti-C3 (MP Biomedicals, Solon, Ohio, USA) and anti-05b-9 aEll (Abcam, Cambridge, Mass., USA), respectively. Plates were washed and incubated with either anti-C3-HRP (1:5000 in 1% BSA/PBS-T) or anti-05b-9 (1:1000 in 1% BSA/PBS-T) for 1 h at 37° C. For C5b-9 detection, primary antibody incubation was followed by incubation with anti-mouse-HRP (BioRad, Hercules, Calif., USA) for 1 h at 37° C. (1:5000 in 1% BSA/PBS-T). Bound C3b and C5b-9 were quantified using a 3,3′,5,5′-tetramethylbenzidine substrate solution containing urea hydrogen peroxide in 0.11 M sodium acetate buffer, followed by a 1 N H2SO4 acid stop. Plates were measured spectrophotometrically at 450 nm. Percent inhibition of C3b and C5b-9 deposition was plotted against peptide concentration and the data was fitted to a logistic dose response curve with Prism software (GraphPad, San Diego, Calif., USA) to determine IC50 values.
In all assays, MgEGTA was used to chelate Ca′ ions required for classical/lectin pathway complement activation, while providing Mg′ necessary for AP activation. ELISAs allow for direct detection of C3b and C5b-9 formed during AP activation, while erythrocyte lysis assays provide a functional assessment of AP-mediated hemolysis in serum. […] Table 9 summarizes the IC50 values derived from the three different assays. […] The relative potencies of the peptides, based on the measured ICH values, are consistent across all three assays (Peptide III˜Peptide VI˜Peptide IX>Peptide I>Parent). Based on the assay conditions used in this study, peptides inhibited C5b-9 formation with moderately better efficacy than formation of C3b, while slightly higher concentrations were necessary to inhibit AP-mediated hemolysis.

[3] = tested on: complement alternative pathway (AP); experiment: Hemolytic assay (rabbit erythrocyte lysis in human serum); assay type: cell-based; conditions: for IC50: Table 9, means from three independent experiments, read-out: IC50, Hemolytic assay
Protocol: Inhibition of complement was also measured via lysis of erythrocytes. Rabbit erythrocytes (Complement Technology Inc., Tyler, Tex., USA) were washed in PBS and resuspended in veronal-buffered saline with 5 mM MgCl2 and 10 mM EGTA (VBS-MgEGTA). Peptide and serum dilutions were prepared as described above, and 1×10^7 erythrocytes were added to each serum/peptide mixture. Erythrocytes diluted in sterile deionized water and in VBS-MgEGTA were used as positive and negative controls for lysis, respectively. Plates were incubated for 20 minutes at 37° C., and centrifuged at 2500×g for 10 minutes.
In all assays, MgEGTA was used to chelate Ca′ ions required for classical/lectin pathway complement activation, while providing Mg′ necessary for AP activation. ELISAs allow for direct detection of C3b and C5b-9 formed during AP activation, while erythrocyte lysis assays provide a functional assessment of AP-mediated hemolysis in serum.

[4] = Table 9, means from three independent experiments, read-out: IC50, C5b-9 ELISA
[5] = table 13, read-out: C5b-9 ELISA IC50

| Compound | Retention factor (k) [1] | logk [1] | relative lipophilicity ([1]; isocratic 24% acetonitrile, pH=7.4 phosphate buffer) | inhibition less than other peptides ([2]; C5b-9 inhibition in ELISA, versus Peptides I, III, VI, IX) | IC50 [2, 4] | IC50 [2, 5] | IC50 [3] | difference in inhibition to other peptides ([3]; hemolysis, versus Peptides I, III, VI, IX) |
| --- | --- | --- | --- | --- | --- | --- | --- | --- |
| CC[C@H](C)[C@H](N)C(=O)N[C@H]1CSSC[C@@H](C(=O)N[C@H](C(N)=O)[C@@H](C)O)NC(=O)[C@H](CCCN=C(N)N)NC(=O)[C@H](Cc2cnc[nH]2)NC(=O)[C@H](Cc2cnc[nH]2)NC(=O)CNC(=O)[C@H](Cc2c[nH]c3ccccc23)NC(=O)[C@H](CC(=O)O)NC(=O)[C@H](CCC(N)=O)NC(=O)[C@H](C(C)C)NC(=O)[C@H](C(C)C)NC1=O [Parent, ICV VQDWGH HRCT-NH2, reference compound] | 2.472 | 0.393 | least lipophilic | 10- to 15 fold | 18.6 µM | 18.6 µM and 12.6 µM | 12.9 µM | 4- to 6 fold |
| CC(=O)N[C@@H](CCCNC(=N)N)C(=O)N[C@H]1CSSC[C@@H](C(=O)N[C@H](C(N)=O)[C@@H](C)O)NC(=O)[C@H](CCCNC(=N)N)NC(=O)[C@H](Cc2c[nH]cn2)NC(=O)[C@H](C)NC(=O)CNC(=O)[C@H](Cc2c[nH]c3ccccc23)NC(=O)[C@H](CC(=O)O)NC(=O)[C@H](CCC(N)=O)NC(=O)[C@H](Cc2c[nH]c3ccccc23)NC(=O)[C@H](C(C)C)NC1=O [Peptide I, Ac- RCV WQDWGA HRCT-NH2] (Ac-RCVWQDWGAHRCT-NH2; disulfide 2-12) | 2.828 | 0.451 | – | – | 2.02 µM | 1 µM and 2 µM | 3.33 µM | – |
| CC(=O)N[C@@H](CCCNC(=N)N)C(=O)N[C@H]1CSSC[C@@H](C(=O)N[C@H](C(N)=O)[C@@H](C)O)NC(=O)[C@H](CCCNC(=N)N)NC(=O)[C@H](Cc2c[nH]cn2)NC(=O)[C@H](C)NC(=O)CNC(=O)[C@H](Cc2c[nH]c3ccccc23)NC(=O)[C@H](CC(=O)O)NC(=O)[C@H](CCC(N)=O)NC(=O)[C@H](Cc2cn(C)c3ccccc23)NC(=O)[C@H](C(C)C)NC1=O [Peptide III, Ac- RCV meWQDWGA HRCT-NH2] (Ac-RCV[Trp(1-Me)]QDWGAHRCT-NH2; disulfide 2-12) | 6.165 | 0.790 | – | – | 1.07 µM | 0.6 µM and 1.1 µM | 2.25 µM | – |
| CC[C@H](C)[C@H](NC(=O)[C@H](CO)NC(=O)[C@H](CCCNC(=N)N)NC(C)=O)C(=O)N[C@H]1CSSC[C@@H](C(=O)N[C@H](C(N)=O)[C@@H](C)O)NC(=O)[C@H](CCCNC(=N)N)NC(=O)[C@H](Cc2c[nH]cn2)NC(=O)[C@H](C)NC(=O)CNC(=O)[C@H](Cc2c[nH]c3ccccc23)NC(=O)[C@H](CC(=O)O)NC(=O)[C@H](CCC(N)=O)NC(=O)[C@H](Cc2cn(C)c3ccccc23)NC(=O)[C@H](C(C)C)NC1=O [Peptide VI, Ac-RS-ICV meWQDWGA HRCT-NH2] | 9.913 | 0.996 | – | – | 1.13 µM | 0.6 µM and 1.1 µM | 2.23 µM | – |
